Key:
[1] = biological target: TEAD1 (Homo sapiens (Human), UniProt P28347); experiment: TR-FRET lipid pocket probe competition assay (Lipid HTRF), TEAD1; format: binding; conditions: 4 hours pre-incubation; read-out: Lipid HTRF TEAD1 IC50;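 further: His-tagged TEAD1 with biotinylated probe, detected via Europium anti-His and XL665 streptavidin, probe displacement lowers TR-FRET signal, IC50 from four-parameter nonlinear fit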
[2] = biological target: TEAD3 (Homo sapiens (Human), UniProt Q99594); experiment: TR-FRET lipid pocket probe competition assay (Lipid HTRF), TEAD3; format: binding; conditions: 4 hours pre-incubation; read-out: Lipid HTRF TEAD3 IC50
[3] = biological target: TEAD4 (Homo sapiens (Human), UniProt Q15561); experiment: TR-FRET lipid pocket probe competition assay (Lipid HTRF), TEAD4; format: binding; conditions: 4 hours pre-incubation; read-out: Lipid HTRF TEAD4 IC50;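 further: His-tagged TEAD4 with biotinylated lipid-pocket probe, read by Europium anti-His and XL665 streptavidin, where probe displacement lowers the TR-FRET signal, IC50 from a four-parameter fit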
[4] = biological target: TEAD2 (Homo sapiens (Human), UniProt Q15562);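 further: TR-FRET competition assay with His-tagged TEAD protein and a biotinylated lipid pocket probe, compound pre-incubated 30 min or 4 h at room temperature, displacement lowers signal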
Chain of TEAD2 (Q15562 whole entry, species assumed): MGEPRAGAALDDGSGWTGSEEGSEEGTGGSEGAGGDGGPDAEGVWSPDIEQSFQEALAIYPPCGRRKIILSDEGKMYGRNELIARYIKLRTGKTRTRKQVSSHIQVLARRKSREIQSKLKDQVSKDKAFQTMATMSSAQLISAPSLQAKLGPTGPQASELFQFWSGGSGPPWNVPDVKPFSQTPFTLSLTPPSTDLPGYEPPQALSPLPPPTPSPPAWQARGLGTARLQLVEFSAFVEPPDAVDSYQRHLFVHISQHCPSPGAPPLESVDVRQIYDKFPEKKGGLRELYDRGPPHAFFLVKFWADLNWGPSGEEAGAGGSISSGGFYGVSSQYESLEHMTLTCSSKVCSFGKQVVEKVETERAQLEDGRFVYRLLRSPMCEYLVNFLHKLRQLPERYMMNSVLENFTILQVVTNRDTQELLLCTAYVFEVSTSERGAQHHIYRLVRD

Chain of TEAD4 (Q15561 whole entry, species assumed): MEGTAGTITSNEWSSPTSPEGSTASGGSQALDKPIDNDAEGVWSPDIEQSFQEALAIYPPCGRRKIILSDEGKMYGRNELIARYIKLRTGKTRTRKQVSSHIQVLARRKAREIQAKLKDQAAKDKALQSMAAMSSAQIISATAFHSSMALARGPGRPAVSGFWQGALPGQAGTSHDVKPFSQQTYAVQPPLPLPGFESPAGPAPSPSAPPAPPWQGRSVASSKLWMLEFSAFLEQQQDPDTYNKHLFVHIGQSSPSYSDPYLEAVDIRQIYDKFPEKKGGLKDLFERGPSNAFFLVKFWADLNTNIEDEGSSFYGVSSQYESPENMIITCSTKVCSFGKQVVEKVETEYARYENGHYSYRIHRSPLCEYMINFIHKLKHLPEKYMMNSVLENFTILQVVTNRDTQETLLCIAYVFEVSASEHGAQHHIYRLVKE
Chain of TEAD3 (Q99594 whole entry, species assumed): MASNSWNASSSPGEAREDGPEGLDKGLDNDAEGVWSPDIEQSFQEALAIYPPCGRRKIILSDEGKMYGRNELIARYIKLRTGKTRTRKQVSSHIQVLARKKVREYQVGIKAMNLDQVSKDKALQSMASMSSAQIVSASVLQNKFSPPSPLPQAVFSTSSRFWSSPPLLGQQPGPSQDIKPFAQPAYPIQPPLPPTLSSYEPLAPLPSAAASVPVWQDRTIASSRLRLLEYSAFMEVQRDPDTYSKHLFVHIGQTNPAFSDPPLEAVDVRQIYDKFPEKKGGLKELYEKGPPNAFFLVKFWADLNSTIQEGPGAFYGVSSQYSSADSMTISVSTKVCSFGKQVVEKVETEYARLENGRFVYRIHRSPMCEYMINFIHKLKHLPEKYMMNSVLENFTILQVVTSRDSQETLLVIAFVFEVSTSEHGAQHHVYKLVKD
Chain of TEAD1 (P28347 whole entry, species assumed): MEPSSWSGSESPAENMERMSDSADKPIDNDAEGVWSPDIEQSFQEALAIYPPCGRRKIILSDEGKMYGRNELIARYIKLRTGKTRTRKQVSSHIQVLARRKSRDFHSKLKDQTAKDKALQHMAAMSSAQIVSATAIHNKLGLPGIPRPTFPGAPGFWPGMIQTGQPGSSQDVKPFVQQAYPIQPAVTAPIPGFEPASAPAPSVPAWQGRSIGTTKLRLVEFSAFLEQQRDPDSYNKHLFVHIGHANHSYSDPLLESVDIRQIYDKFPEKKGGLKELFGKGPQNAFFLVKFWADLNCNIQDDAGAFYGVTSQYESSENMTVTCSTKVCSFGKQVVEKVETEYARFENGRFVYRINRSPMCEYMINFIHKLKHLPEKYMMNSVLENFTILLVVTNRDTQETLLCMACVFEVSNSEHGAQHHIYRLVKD

Structure (SMILES): C=C(F)C(=O)N1CC(c2nn(-c3ccc(OC(F)(F)F)cc3)c3nccc(-c4cnn(CCN(C)C)c4)c23)C1 [Compound 45, 1-(3-(4-(1-(2-(Dimethylamino)ethyl)-1H-pyrazol-4-yl)-1-(4-(trifluoromethoxy)phenyl)-1H-pyrazolo[3,4-b]pyridin-3-yl)azetidin-1-yl)-2-fluoroprop-2-en-1-one]
- IC50 [1]: 250 nM
- IC50 [2]: 50000 nM
- IC50 [3]: 340 nM
- IC50 [4]: 1500 nM

Structure (SMILES): C=C(F)C(=O)N1CC(c2nn(-c3ccc(OC(F)(F)F)cc3)c3nccc(N4CC([C@@H](O)CO)C4)c23)C1 [Compound 58, (R)-1-(3-(4-(3-(1,2-Dihydroxyethyl)azetidin-1-yl)-1-(4-(trifluoromethoxy)phenyl)-1H-pyrazolo[3,4-b]pyridin-3-yl)azetidin-1-yl)-2-fluoroprop-2-en-1-one]
- IC50 [1]: 38 nM
- IC50 [2]: 50000 nM
- IC50 [3]: 9.6 nM
- IC50 [4]: 70 nM

Structure (SMILES): C=CC(=O)NCc1nn(-c2ccc(OC(F)(F)F)cc2)c2cccc(C#N)c12 [Compound 186, N-((4-cyano-1-(4-(trifluoromethoxy)phenyl)-1H-indazol-3-yl)methyl)acrylamide]
- IC50 [1]: 270 nM
- IC50 [2]: 255 nM
- IC50 [3]: 52.5 nM
- IC50 [4]: 430 nM

Structure (SMILES): C=CC(=O)NCc1nn(-c2ccc(OC(F)(F)F)cc2)c2nccc(C(C)(C)O)c12 [Compound 135, N-((4-(2-Hydroxypropan-2-yl)-1-(4-(trifluoromethoxy)phenyl)-1H-pyrazolo[3,4-b]pyridin-3-yl)methyl)acrylamide]
- IC50 [1]: 390 nM
- IC50 [2]: 34000 nM
- IC50 [3]: 99 nM
- IC50 [4]: 68 nM

Structure (SMILES): C=CC(=O)N1CC(c2nn(-c3ccc(OC(F)(F)F)cc3)c3nccc([C@@H](O)CO)c23)C1 [Compound 114, (R)-1-(3-(4-(1,2-Dihydroxyethyl)-1-(4-(trifluoromethoxy)phenyl)-1H-pyrazolo[3,4-b]pyridin-3-yl)azetidin-1-yl)prop-2-en-1-one]
- IC50 [1]: 14 nM
- IC50 [2]: 16 nM
- IC50 [3]: 2.9 nM
- IC50 [4]: 4.6 nM

Structure (SMILES): C=CC(=O)NCc1nn(-c2ccc(OC(F)(F)F)cc2)c2nccc(-c3cnn(CCO)c3)c12 [Compound 35, N-((4-(1-(2-Hydroxyethyl)-1H-pyrazol-4-yl)-1-(4-(trifluoromethoxy)phenyl)-1H-pyrazolo[3,4-b]pyridin-3-yl)methyl)acrylamide]
- IC50 [1]: 17 nM
- IC50 [2]: 640 nM
- IC50 [3]: 14 nM
- IC50 [4]: 170 nM

Structure (SMILES): C/C=C/C(=O)N1CC(c2nn(-c3ccc(OC(F)(F)F)cc3)c3nccc(CO)c23)C1 [Compound 120, (E)-1-(3-(4-(Hydroxymethyl)-1-(4-(trifluoromethoxy)phenyl)-1H-pyrazolo[3,4-b]pyridin-3-yl)azetidin-1-yl)but-2-en-1-one]
- IC50 [1]: 27 nM
- IC50 [2]: 270 nM
- IC50 [3]: 55 nM
- IC50 [4]: 160 nM

Structure (SMILES): C=C(F)C(=O)N1CC(c2nn(-c3ccc(OC(F)(F)F)cc3)c3nccc(-c4cnn(C5CC5)c4)c23)C1 [Compound 177, 1-(3-(4-(1-cyclopropyl-1H-pyrazol-4-yl)-1-(4-(trifluoromethoxy)phenyl)-1H-pyrazolo[3,4-b]pyridin-3-yl)azetidin-1-yl)-2-fluoroprop-2-en-1-one]
- IC50 [1]: 86 nM
- IC50 [2]: 50000 nM
- IC50 [3]: 120 nM
- IC50 [4]: 890 nM

Structure (SMILES): C[C@H](O)/C=C/C(=O)N1CC(c2nn(-c3ccc(OC(F)(F)F)cc3)c3nccc(CO)c23)C1 [Compound 97, (S,E)-4-hydroxy-1-(3-(4-(hydroxymethyl)-1-(4-(trifluoromethoxy)phenyl)-1H-pyrazolo[3,4-b]pyridin-3-yl)azetidin-1-yl)pent-2-en-1-one]
- IC50 [1]: 78 nM
- IC50 [2]: 570 nM
- IC50 [3]: 58 nM
- IC50 [4]: 520 nM

Structure (SMILES): C=C(F)C(=O)N1CC(c2nn(-c3ccc(OC(F)(F)F)cc3)c3nccc(-c4cnn(CCOC)c4)c23)C1 [Compound 176, 2-fluoro-1-(3-(4-(1-(2-methoxyethyl)-1H-pyrazol-4-yl)-1-(4-(trifluoromethoxy)phenyl)-1H-pyrazolo[3,4-b]pyridin-3-yl)azetidin-1-yl)prop-2-en-1-one]
- IC50 [1]: 46 nM
- IC50 [2]: 50000 nM
- IC50 [3]: 77 nM
- IC50 [4]: 800 nM

Structure (SMILES): Cc1ccnc2c1c(C1CN(C(=O)/C=C/CO)C1)nn2-c1ccc(OC(F)(F)F)cc1 [Compound 96, (E)-4-Hydroxy-1-(3-(4-methyl-1-(4-(trifluoromethoxy)phenyl)-1H-pyrazolo[3,4-b]pyridin-3-yl)azetidin-1-yl)but-2-en-1-one]
- IC50 [1]: 10 nM
- IC50 [2]: 38 nM
- IC50 [3]: 3.7 nM
- IC50 [4]: 30 nM

Structure (SMILES): C=C(F)C(=O)N1CC(c2nn(-c3ccc(OC(F)(F)F)cc3)c3nccc([C@@H](O)CO)c23)C1 [Compound 21, 1-[3-[4-[(1R)-1,2-dihydroxyethyl]-1-[4-(trifluoromethoxy)phenyl]pyrazolo[3,4-b]pyridin-3-yl]azetidin-1-yl]-2-fluoro-prop-2-en-1-one]
- IC50 [1]: 21.5 nM
- IC50 [2]: 38.5 nM
- IC50 [3]: 13 nM
- IC50 [4]: 7.2 nM

Source: patent US12110276B2 (Genentech, Inc., priority 2021, dated 2024)
